Measurements as given in US7205119B2, “HA-1 antigen” (Rijksuniversiteit te Leiden, priority 1997, dated 2007).
Where no end group is shown, it is not given here.

Assays:
[1] = system: recombinant HLA-A2.1 and b2-microglobulin; experiment: HLA-A2.1 peptide binding assay (inhibition of binding of fluorescent standard peptide, cell free); parameters: species or system human; conditions: for HLA-A2.1 binder class: class assigned from IC50
Experimental: (§1) FIG. 4a. Binding of HA-1^H and HA-1^R peptides to HLA-A2.1. The binding of HA-1^H and HA-1^R peptides were assayed for their ability to inhibit the binding of fluorescent peptide […] (SEQ ID NO: 17) to recombinant HLA-A2.1 and b2-microglobulin in a cell free peptide binding assay. One representative experiment is shown. […] (FIG. 4b.) Reconstitution assay with different concentrations of synthetic HA-1^R peptide with HA-1 specific T cells. The HA-1^R peptide was titrated and preincubated with T2 cells. Three HA-1 specific T cell clones, 5W38, 3HA15 and clone 15 were added and a 4 hr ^51Cr-release assay was performed. Background lysis of T2 by the CTL in the absence of any peptide was for 3HA15 4%, for clone 15 10% and for 5W38 2%. Positive control lysis was for 3HA15 46%, for clone 15 47% and 5W38 48%.
Reconstitution and HLA-A2.1 binding assays were performed to determine the capacity of HA-1^R peptide […] (SEQ ID NO: 5) to bind to HLA-A2.1 and to be recognized by the HA-1 specific T cell clones. […] Different concentrations of […] (SEQ ID NO: 5) were tested in a ^51Cr-release assay with three HA-1 specific T cell clones.
HLA-A2.1 peptide binding assay. A quantitative assay for HLA-A2.1 binding peptides based on the inhibition of binding of the fluorescent labeled standard peptide Hbc 18–27 F to C6 ([…]) (SEQ ID NO: 17) to recombinant HLA-A2.1 protein and B2-microglobulin was used^26,27. In short, HLA-A2.1 concentrations yielding approximately 40–60% bound fluorescent standard peptide were used with 15 pmol/well (150 nM) B2-microglobulin (Sigma). Various doses of the test peptides were coincubated with 100 fmol/well (1 nM) fluorescent standard peptide, HLA-A2.1 and B2-microglobulin for 1 day at room temperature in the dark in a volume of […] in assay.buffer. The percent of MHC-bound fluorescence was determined by gel filtration and the 50% inhibitory dose was deduced for each peptide using one-site competition non-linear regression analysis with the prismgraph software. […]

[2] = system: HA-1 specific T cell clones 3HA15, clone 15 and 5W38 (T2 target cells); experiment: 51Cr-release reconstitution assay (CML assay) with peptide-loaded T2 cells and HA-1 specific CTL clones; type: cell-based, human
Source text: FIG. 2. Sequencing of mH HA-1 peptide by tandem mass spectrometry. (FIG. 2a.) Collision activation dissociation mass spectrum of peptide candidate with m/z of 513. (FIG. 2b.) Reconstitution assay with different concentrations of synthetic mH HA-1 peptide with three HA-1 specific T cell clones, 3HA15, clone 15 and 5W38. Background lysis of T2 by the CTL in the absence of any peptide was for 3HA15 4%, for clone 15 10% and for 5W38 2%. Positive control lysis was for 3HA15 46%, for clone 15 47% and 5W38 48%.
as §1, with “48%. […]” for “48%.”

Row | Sequence | fold lower binding affinity for HLA-A2.1 versus HA-1^H peptide [1] [fold] | HLA-A2.1 binder class [1] | peptide concentration needed for recognition relative to that for the HA-1^H peptide ([2]; clone 3HA15 only (one out of three clones showed recognition)) [times] | reconstitution of the HA-1 epitope by synthetic peptide ([2]; results not shown)
1 | VLRDDLLEA | 10 | intermediate binders | 1000 | 
2 | YXTDRVMTV [peptide candidate m/z 550; X stands for Isoleucine or Leucine] |  |  |  | not able to reconstitute the HA-1 epitope
3 | VLHDDLLEA |  | high affinity binders |  | 
